For orientation: IC50 means the concentration that inhibits the measured activity by half.

Test system in the first assay: not given
Test: not given
Set-up: method as in PMID 11958615. The following applies: concentration of 40 µM; cited from earlier work.
For the compound `OC[C@H]1O[C@@H](Oc2cc3c(O)cc(O)cc3[o+]c2-c2ccc(O)c(O)c2)[C@H](O)[C@@H](O)[C@H]1O` [cyanidin 3-O-β-galactoside], the antioxidant activity is reported as 60.1%.

Turning to `OC[C@H]1O[C@@H](Oc2cc3c(O)cc(O)cc3[o+]c2-c2cc(O)c(O)c(O)c2)[C@H](O)[C@@H](O)[C@H]1O` [delphinidin 3-O-β-galactoside], the antioxidant activity was 70.2%.

For `OCC1OC(Oc2cc3c(O)cc(O)cc3[o+]c2-c2ccc(O)cc2)C(O)C(O)C1O` (stereo not drawn) [pelargonidin 3-O-β-galactoside], the antioxidant activity is listed as 40.3%.

Another assay concerns the target α-glucosidase.
Test: not given
Details: method as in doi:10.1016/j.jff.2017.04.005. The conditions noted are these: cited from earlier work.
Turning to `O=C(O)/C=C/c1ccc(O)c(O)c1` [caffeic acid], the IC50 is 223 µM.

Regarding `COc1cc(/C=C/C(=O)O)ccc1O` [ferulic acid], the IC50 is 461 µM.

Turning to `O=C(O)c1cc(O)c(O)c(O)c1` [gallic acid], the IC50 is 296 µM.

For `O=c1c(O[C@@H]2O[C@H](CO)[C@@H](O)[C@H](O)[C@H]2O)c(-c2ccc(O)c(O)c2)oc2cc(O)cc(O)c12` [quercetin-3-O-glucoside], the IC50 is 12.3 µM.

In the case of kaempferol-3-O-rutinoside, the IC50 is 10.2 µM.

The test system of a further assay is glucosidase.
Test: not given
The following applies: ref Dehghan et al., 2018; cited from earlier work. Set-up: method as in Dehghan et al., 2018.
Turning to `Cc1cc(O)c2c(c1)C(=O)c1cc(O)cc(O)c1C2=O` [emodin], the “anti-glucosidase activity (in words)” value is “relevant anti-glucosidase activity”.

As to `COc1cc(O)c2c(c1)C(=O)c1cc(C)cc(O)c1C2=O` [physcion], the “anti-glucosidase activity (in words)” value is reported as “relevant anti-glucosidase activity”.

Turning to `C[C@H](CCc1ccc(O)cc1)O[C@@H]1O[C@H](CO)[C@@H](O)[C@H](O)[C@H]1O` [rhododendrin], the “anti-glucosidase activity (in words)” value was “relevant anti-glucosidase activity”.

Another assay concerns PL.
Test: not given
Details: method as in doi:10.1016/j.jff.2017.04.005. The following applies: read-out: IC50 against PL activity; cited from earlier work.
Turning to `O=C(/C=C/c1ccc(O)c(O)c1)O[C@@H]1C[C@](O)(C(=O)O)C[C@@H](O)[C@H]1O` [compound 1, chlorogenic acid], the IC50 was 3810 µM.

Regarding `O=C(O)c1cc(O)c(O)c(O)c1` [gallic acid], the IC50 was 5050 µM.

Turning to `O=c1c(O[C@@H]2O[C@H](CO)[C@@H](O)[C@H](O)[C@H]2O)c(-c2ccc(O)cc2)oc2cc(O)cc(O)c12` [kaempferol-3-O-glucoside], the IC50 is 3520 µM.

Turning to `O=c1c(O[C@@H]2O[C@H](CO)[C@@H](O)[C@H](O)[C@H]2O)c(-c2ccc(O)c(O)c2)oc2cc(O)cc(O)c12` [quercetin-3-O-glucoside], the IC50 is 1740 µM.

Test system in a further assay: not listed separately
Nature of the assay: DPPH radical scavenging assay. The following applies: half scavenging concentration; 30 min incubation, absorbance 518 nm. As to the method:
The scavenging of DPPH radical was examined using a modified assay previously described. The equal volumes (100 µL) of ethanolic solution of DPPH (0.02 M) and extract samples dissolved in 50% (v/v) aqueous-ethanol were added into 96-well microplates and incubated for 30 min in the darkness. The absorbance was measured at 518 nm with microplate reader (Synergy 4, Biotek, USA). The blind samples were prepared in order to exclude color interference. Ascorbic acid was used as a positive control.
On the technique in general: The DPPH test is a chemical assay of radical scavenging.
As to `O=C1O[C@H]([C@@H](O)CO)C(O)=C1O` [Ascorbic acid], the “SC50 DPPH scavenging” value is reported as 3.73 ± 0.83 µg/mL.

For another assay, the target named is α-glucosidase from Saccharomyces cerevisiae (Saccharomyces cerevisiae, UniProt P53341). The experiment in a line: α-glucosidase inhibition (pNPG, spectrophotometric). The following applies: pNPG substrate, pH 6.8, 37 °C; read-out: IC50 [mM] inhibition of α-glucosidase by compounds isolated from fruit of Cornus alba. It is filed as biochemical. The text has this: Acetonitrile (MeCN, UHPLC-grade), n-butanol (BuOH), chloroform (CHCl3), ethyl acetate (EtOAc), ethanol (EtOH) and methanol (MeOH) for extraction were obtained from POCH (Gliwice, Poland). Natural product reagent A (diphenylboric acid 2-aminoethyl ester) and quercetin 3-O-glucoside (isoquercitrin) were purchased from Carl Roth GmbH (Karlsruhe, Germany). […] Quercetin 3-O-galactoside (hyperoside) was purchased from HWI Analytik GmbH (Rheinzaberner, Germany). […] Water was obtained using Millipore Simfilter Simplicity UV (Molsheim, France) water purification system. HPLC-DAD-MS^n analysis was performed on a UHPLC-3000 RS system (Dionex, Germany) with DAD and an AmaZon SL ion trap mass spectrometer with an ESI interface (Bruker Daltonik GmbH, Germany). […] If needed, additional experiments, such as HSQC and HMBC were performed. The NMR spectra were acquired using Varian VNMRS 300 Oxford 300 MHz spectrometer (Bruker, Billerica, MA, USA).
Sequence of α-glucosidase from Saccharomyces cerevisiae (P53341 whole entry): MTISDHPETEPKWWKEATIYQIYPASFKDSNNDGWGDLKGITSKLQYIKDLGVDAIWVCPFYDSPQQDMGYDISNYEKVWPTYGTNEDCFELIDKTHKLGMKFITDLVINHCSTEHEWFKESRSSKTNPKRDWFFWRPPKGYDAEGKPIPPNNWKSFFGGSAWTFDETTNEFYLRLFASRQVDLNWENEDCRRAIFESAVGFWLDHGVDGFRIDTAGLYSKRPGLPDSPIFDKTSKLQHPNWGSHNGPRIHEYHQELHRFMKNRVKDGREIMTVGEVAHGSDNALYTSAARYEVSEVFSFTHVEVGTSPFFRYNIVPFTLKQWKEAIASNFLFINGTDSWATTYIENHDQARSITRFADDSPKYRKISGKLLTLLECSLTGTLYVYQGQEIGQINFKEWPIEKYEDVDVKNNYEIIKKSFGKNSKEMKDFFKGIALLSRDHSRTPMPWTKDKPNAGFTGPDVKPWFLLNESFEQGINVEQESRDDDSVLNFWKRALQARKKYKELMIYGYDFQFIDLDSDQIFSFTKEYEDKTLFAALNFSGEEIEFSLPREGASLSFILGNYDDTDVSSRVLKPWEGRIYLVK
The α-glucosidase inhibition by extracts was determined spectrophotometrically according to the modified assay previously described. The colorimetric measurement of enzyme activity was based on the hydrolytic cleavage of a substrate, p-nitrophenyl-α-D-glucopyranoside (pNPG). Briefly, sample solution of tested extract or isolated compound (150 µl) dissolved in 0.1 M phosphate buffer (pH 6.8) was incubated with 50 µL of α-glucosidase solution (0.4 U/mL) at 37 °C. After 15 min of incubation, the substrate solution (0.7 mM in 0.1 M phosphate buffer, pH 6.8) was added and the second 15 min incubation at 37 °C was performed. The reaction was terminated by adding 50 µL sodium carbonate solution (0.2 M). The absorbance of p-nitrophenol was measured at 405 nm in a microplate reader (Synergy 4, Biotek, USA).
In the case of `O=C(C=Cc1ccc(O)cc1)OC1CC(O)(C(=O)O)CC(O)C1O` (centres unmarked) [compound 2, 5-O-coumaroylquinic acid], the IC50 was 0.84 ± 0.14 mM.

With `COC(=O)C1(O)CC(O)C(O)C(OC(=O)/C=C/c2ccc(O)cc2)C1` (centres unmarked) [compound 3, 5-O-(E)-p-coumaroylquinic acid methyl ester], the IC50 is 0.16 ± 0.01 mM.

As to `COC(=O)[C@H]1O[C@@H](Oc2c(-c3ccc(O)cc3)oc3cc(O)cc(O)c3c2=O)[C@H](O)[C@@H](O)[C@@H]1O` [compound 4, kaempferol 3-O-glucuronide 6″-methylester], the IC50 turned out to be 0.21 ± 0.05 mM.

Turning to `OC[C@H]1O[C@@H](OCCc2ccc(O)c(O)c2)[C@H](O)[C@@H](O)[C@@H]1O` [compound 5, hydroxytyrosol glucoside], the IC50 turned out to be 1.46 ± 0.18 mM.

These data come from PMC7020211, “Inhibition of Digestive Enzymes and Antioxidant Activity of Extracts from Fruits of Cornus alba, Cornus sanguinea subsp. hungarica and Cornus florida–A Comparative Study” (Plants, 2020).
